Assay results reported in patent publication US9301955B2, “Tritoqualine for use in the treatment of cystic fibrosis” (ORPHAN SYNERGY EUROPE-PHARMA, priority 2012, dated 2016).
Ends that are not written are not given here.

Test system: IL8 release, epithelial cells from human gingival mucosa
Assay: IL8 release in human ex vivo gingival mucosa model stimulated by substance P
Format: cell-based
Details: gingival mucosa stimulated by substance P 10 microM alone; measured at 24 hours; versus 29.6 ng/ml in control group (p=0.04)
Experimental: Tritoqualin effect on IL8 release on a human ex vivo model (epithelial Cells from Human gingival extraction maintained in survival) after stimulation of IL8 release
13 fragments of gingival mucous from different human donors (removal of wisdom teeth of healthy volunteers) were maintained in survival ex vivo. To this end, fragments were placed in inserts themselves willing suspended above the culture wells. The nutrient medium (antibiotics, FCS—Fetal Calf Serum) was added to the bottom of the wells, passage is carried out by slow diffusion of the two compartments by means of a porous membrane ([…]). The whole was maintained in organ culture for 24 hours in an oven to a humid atmosphere at 37° C. in the presence of 5% CO2.
Gingival inflammation was achieved by stimulation of the mucosa with a neurotransmitter, substance P (10 microM) deposited in the culture medium. Tritoqualine was added to the culture medium (systemic effect) at a concentration of 20 microM, 10 minutes after application of substance P. […]
The inflammatory cytokine, IL8, a potent chemo attractant of neutrophils, was measured in culture supernatants, 24 hours after deposition of substance P.
IL8 was measured in ng/ml by immunoassays (kits Gen Probe, France) with a spectrophotometer at 450 nm.

Substance: Substance P: neurotransmitter, an established pro-inflammatory compound used to stimulate IL8 release (RPKPQQFFGLM-NH2; ends and bridges not checked; UniProt P20366 58-68, looked up)
- IL8 release in culture supernatant: 31.7 ng/mL
